Measured values from patent publication US20250064699A1, “CHLORHEXIDINE GLUCONATE-ISOPROPYL ALCOHOL WET WIPE PRODUCT AND PREPARATION METHOD THEREOF” (Dukal, LLC, priority 2021, published 2025).

Experiment: Stability testing: contents of chlorhexidine gluconate (liquid chromatography) and isopropyl alcohol (gas chromatography) in the wet wipe, long-term experiment
Format: physicochemical
Procedure: The test was performed by chromatography. The content of chlorhexidine gluconate in the 2% chlorhexidine gluconate-isopropyl alcohol solution and the wet wipe was quantitatively detected by liquid chromatography. The content of isopropyl alcohol in the wet wipe was quantitatively detected by gas chromatography. In this test, the contents of chlorhexidine gluconate and isopropyl alcohol were used as evaluation indexes. The contents of chlorhexidine gluconate and isopropyl alcohol were measured by a long-term experiment. Relative standard deviation (RSD) was used to determine the stability of the contents of chlorhexidine gluconate and isopropyl alcohol in the chlorhexidine gluconate-isopropyl alcohol wet wipe. The contents were respectively measured at Month 0, Month 1, Month 3, Month 6, Month 9, Month 12, Month 18 and Month 24. Based on the content at Month 0 (100%), the ratio of the content at the subsequent time points to the content at Month 0 was calculated respectively, as shown in Table 1.

| ratio of the content to the content at Month 0 (Month 0 (set as 100%)) | ratio of the content to the content at Month 0 (Month 3) | ratio of the content to the content at Month 0 (Month 6) | ratio of the content to the content at Month 0 (Month 9) | ratio of the content to the content at Month 0 (Month 12) | ratio of the content to the content at Month 0 (Month 18) | ratio of the content to the content at Month 0 (Month 24) | Compound |
| --- | --- | --- | --- | --- | --- | --- | --- |
| 100% | 100% | 100% | 100% | 100% | 100% | 106.2%^ | N=C(NCCCCCCNC(=N)NC(=N)Nc1ccc(Cl)cc1)NC(=N)Nc1ccc(Cl)cc1.O=C(O)[C@H](O)[C@@H](O)[C@H](O)[C@H](O)CO.O=C(O)[C@H](O)[C@@H](O)[C@H](O)[C@H](O)CO [Chlorhexidine gluconate] |
| 100% | 97.5% | 100.8% | 100% | 99.2% | 100.8% | 102.5% | CC(C)O [Isopropyl alcohol] |
